Where “and” joins values, the source holds several entries; their conditions need not be identical. Equal entries are not always repeated. Toxic doses and inconclusive results are not listed. Rule as the data show it: active = T/C of 150% or more; inactive = T/C below 125%.
Test system: L1210 leukemia ip in BDF1 mice, survival T/C
Assay: NCI In Vivo Anticancer Drug Screen. Data for tumor model L1210 Leukemia (intraperitoneal) in B6D2F1 (BDF1) mice
Settings: endpoint: mean survival time, higher = longer survival
Procedure, shortened: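 In this screen, tumor-bearing mice given compound are compared to those given vehicle, and their survival values are reported as a treated-to-control quotient.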

[1] = dose: 100.0 mg/kg/injection, schedule: Q01DX009 (ip), vehicle: saline with Tween-80
[2] = dose: 200.0 mg/kg/injection, schedule: Q01DX009 (ip), vehicle: saline with Tween-80
[3] = dose: 100.0 mg/kg/injection, schedule: Q01DX005 (ip), vehicle: saline
[4] = dose: 3.12 mg/kg/injection, schedule: Q01DX009 (ip), vehicle: saline with Tween-80
[5] = dose: 6.25 mg/kg/injection, schedule: Q01DX009 (ip), vehicle: saline with Tween-80
[6] = dose: 200.0 mg/kg/injection, schedule: Q04DX002 (ip), vehicle: saline with Tween-80
[7] = dose: 400.0 mg/kg/injection, schedule: Q04DX002 (ip), vehicle: saline with Tween-80
[8] = dose: 50.0 mg/kg/injection, schedule: Q01DX009 (ip), vehicle: saline with Tween-80
[9] = dose: 100.0 mg/kg/injection, schedule: Q04DX002 (ip), vehicle: saline with Tween-80

Measured: T/C

CC[n+]1cccc(NC(=O)c2ccc(NC(=O)c3ccc(C(=O)Nc4ccc(C(=O)Nc5ccc[n+](CC)c5)c(N)c4)cc3)cc2N)c1
inactive: dose: 22.0 mg/kg/injection, schedule: Q01DX015 (ip), vehicle: other 114 % of control | dose: 37.0 mg/kg/injection, schedule: Q01DX015 (ip), vehicle: other 90 % of control
active: dose: 2.5 mg/kg/injection, schedule: Q01DX015 (ip), vehicle: other 187 % of control | dose: 5.0 mg/kg/injection, schedule: Q01DX015 (ip), vehicle: other 264 % of control | dose: 8.0 mg/kg/injection, schedule: Q01DX015 (ip), vehicle: other 246 % of control | dose: 10.0 mg/kg/injection, schedule: Q01DX015 (ip), vehicle: other 150 % of control | dose: 22.0 mg/kg/injection, schedule: Q01DX001 (ip), vehicle: other 156 % of control | dose: 25.0 mg/kg/injection, schedule: Q01DX001 (ip), vehicle: other 174 % of control | dose: 33.0 mg/kg/injection, schedule: Q01DX001 (ip), vehicle: other 168 % of control | dose: 50.0 mg/kg/injection, schedule: Q01DX001 (ip), vehicle: other 203 % of control | dose: 55.0 mg/kg/injection, schedule: Q01DX001 (ip), vehicle: other 219 % of control | dose: 75.0 mg/kg/injection, schedule: Q01DX001 (ip), vehicle: other 212 % of control

CC(NC(=O)OCc1ccccc1)C(=O)Nc1ccc(C(=O)O)c(O)c1 (stereo unspecified)
inactive: [1] 90 % of control | [2] 88 % of control | dose: 400.0 mg/kg/injection, schedule: Q01DX009 (ip), vehicle: saline with Tween-80 98 % of control

c1ccc(-c2cnnn2-c2ccccc2)cc1
inactive: dose: 100.0 mg/kg/injection, schedule: Q01DX001 (ip), vehicle: saline with Tween-80 105 % of control | dose: 200.0 mg/kg/injection, schedule: Q01DX001 (ip), vehicle: saline with Tween-80 100 % of control | dose: 400.0 mg/kg/injection, schedule: Q01DX001 (ip), vehicle: saline with Tween-80 105 % of control

CC(C)=CCC/C(C)=C/Cn1cnc2c(ncn2C2OC(CO)C(O)C2O)c1=O (stereo unspecified)
inactive: dose: 12.5 mg/kg/injection, schedule: Q01DX009 (ip), vehicle: saline 100 % of control | dose: 25.0 mg/kg/injection, schedule: Q01DX005 (ip), vehicle: saline 97 % of control | dose: 25.0 mg/kg/injection, schedule: Q01DX009 (ip), vehicle: saline 100 % of control | dose: 50.0 mg/kg/injection, schedule: Q01DX005 (ip), vehicle: saline 108 % of control | dose: 50.0 mg/kg/injection, schedule: Q01DX009 (ip), vehicle: saline 92 % of control | [3] 96 % of control

COc1cc[n+]([O-])cc1
inactive: dose: 100.0 mg/kg/injection, schedule: Q01DX009 (ip), vehicle: saline 103 % of control | dose: 100.0 mg/kg/injection, schedule: Q01DX Z (ip), vehicle: saline 102 % of control and 106 % of control | dose: 100.0 mg/kg/injection, schedule: Q04DX003 (ip), vehicle: saline 121 % of control | dose: 150.0 mg/kg/injection, schedule: Q01DX Z (ip), vehicle: saline 103 % of control and 107 % of control | dose: 200.0 mg/kg/injection, schedule: Q01DX009 (ip), vehicle: saline 100 % of control | dose: 200.0 mg/kg/injection, schedule: Q04DX003 (ip), vehicle: saline 114 % of control | dose: 225.0 mg/kg/injection, schedule: Q01DX Z (ip), vehicle: saline 95 % of control and 97 % of control | dose: 300.0 mg/kg/injection, schedule: Q01DX Z (ip), vehicle: saline 92 % of control and 106 % of control | dose: 400.0 mg/kg/injection, schedule: Q01DX009 (ip), vehicle: saline 99 % of control | dose: 400.0 mg/kg/injection, schedule: Q04DX003 (ip), vehicle: saline 95 % of control

CCN(CC)CCCC(C)Nc1cc(/C=C/c2ccc(Cl)cc2)nc2ccc(N(C)C)cc12 (stereo unspecified)
inactive: [4] 95 % of control | [5] 97 % of control | dose: 12.5 mg/kg/injection, schedule: Q01DX009 (ip), vehicle: saline with Tween-80 95 % of control and 98 % of control

O=C(C#Cc1ccccc1)N1CCCCC1
inactive: [6] 98 % of control | [7] 101 % of control

CNC(=S)NC1CC(OC2CC(O)(C(C)=O)Cc3c(O)c4c(c(O)c32)C(=O)c2c(OC)cccc2C4=O)OC(C)C1O (stereo unspecified)
inactive: dose: 2.0 mg/kg/injection, schedule: Q04DX003 (ip), vehicle: water 107 % of control | [4] 115 % of control | dose: 4.0 mg/kg/injection, schedule: Q04DX003 (ip), vehicle: water 106 % of control | [5] 120 % of control | dose: 8.0 mg/kg/injection, schedule: Q04DX003 (ip), vehicle: water 107 % of control | dose: 12.5 mg/kg/injection, schedule: Q04DX003 (ip), vehicle: saline with Tween-80 108 % of control | dose: 16.0 mg/kg/injection, schedule: Q04DX003 (ip), vehicle: water 109 % of control and 110 % of control | dose: 25.0 mg/kg/injection, schedule: Q04DX003 (ip), vehicle: saline with Tween-80 124 % of control | dose: 32.0 mg/kg/injection, schedule: Q04DX003 (ip), vehicle: water 116 % of control | dose: 50.0 mg/kg/injection, schedule: Q04DX003 (ip), vehicle: saline with Tween-80 121 % of control | dose: 64.0 mg/kg/injection, schedule: Q04DX003 (ip), vehicle: water 110 % of control | dose: 125.0 micrograms/kg/injection, schedule: Q04DX003 (ip), vehicle: water 96 % of control | dose: 250.0 micrograms/kg/injection, schedule: Q04DX003 (ip), vehicle: water 103 % of control | dose: 500.0 micrograms/kg/injection, schedule: Q04DX003 (ip), vehicle: water 102 % of control | dose: 1000.0 micrograms/kg/injection, schedule: Q04DX003 (ip), vehicle: water 103 % of control | dose: 2000.0 micrograms/kg/injection, schedule: Q04DX003 (ip), vehicle: water 98 % of control

CCOCc1c(COc2ccc(Br)cc2)n(C)c2ccccc12
inactive: dose: 25.0 mg/kg/injection, schedule: Q01DX009 (ip), vehicle: saline with Tween-80 100 % of control | [8] 89 % of control and 90 % of control | [1] 90 % of control | [2] 99 % of control

NC(=O)Oc1ccc(C2CC(=O)C(C(N)=O)C(=O)C2)cc1 (stereo unspecified)
inactive: dose: 100.0 mg/kg/injection, schedule: Q01DX001 (ip), vehicle: other 97 % of control | dose: 100.0 mg/kg/injection, schedule: Q04DX003 (ip), vehicle: saline with Tween-80 108 % of control | dose: 200.0 mg/kg/injection, schedule: Q01DX001 (ip), vehicle: other 92 % of control | dose: 200.0 mg/kg/injection, schedule: Q04DX003 (ip), vehicle: saline with Tween-80 103 % of control | dose: 400.0 mg/kg/injection, schedule: Q01DX001 (ip), vehicle: other 94 % of control | dose: 400.0 mg/kg/injection, schedule: Q04DX003 (ip), vehicle: saline with Tween-80 100 % of control

CCC(C)C(C#N)(CCN(CC=C(C)C)CC=C(C)C)c1cccc2ccccc12 (stereo unspecified)
inactive: dose: 100.0 mg/kg/injection, schedule: Q04DX003 (ip), vehicle: Klucel (hydroxypropylcellulose) (HPC) 96 % of control | dose: 200.0 mg/kg/injection, schedule: Q04DX003 (ip), vehicle: Klucel (hydroxypropylcellulose) (HPC) 110 % of control | dose: 400.0 mg/kg/injection, schedule: Q04DX003 (ip), vehicle: Klucel (hydroxypropylcellulose) (HPC) 93 % of control

Cn1cnc2c(=O)[nH]nnc21
inactive: [3] 96 % of control | dose: 200.0 mg/kg/injection, schedule: Q01DX005 (ip), vehicle: saline 112 % of control

CCCCCCCCNNC(=O)c1ccccc1
inactive: dose: 100.0 mg/kg/injection, schedule: Q01DX001 (ip), vehicle: carboxymethylcellulose (CMC) 95 % of control | dose: 200.0 mg/kg/injection, schedule: Q01DX001 (ip), vehicle: carboxymethylcellulose (CMC) 97 % of control | dose: 400.0 mg/kg/injection, schedule: Q01DX001 (ip), vehicle: carboxymethylcellulose (CMC) 92 % of control

OCC1OC(OC2C(CO)OCC(O)C2O)C(O)C(O)C1O (stereo unspecified)
inactive: [9] 100 % of control | [6] 100 % of control | [7] 88 % of control

Cc1c(C)c(C)c([N+](=O)[O-])c([N+](=O)[O-])c1C
inactive: [8] 112 % of control | [1] 93 % of control | [9] 97 % of control | [2] 93 % of control | [6] 114 % of control
